Measurements published in patent US11773368B2, “Culture method for differentiating primordial germ cells into functionally mature oocytes” (TOKYO UNIVERSITY OF AGRICULTURE, priority 2015, dated 2023).
“Also recorded” adds a separate entry of the source.

Columns and labels:
[1] = tested on: primordial germ cells in gonads from female mouse fetuses at 12.5 dpc; assay: In vitro organ culture of gonad (secondary follicle formation); format: cell-based
Protocol: For the medium of the organ culture, the basal medium supplemented with FBS (Gibco, Thermo Fisher Scientific Inc.), SPS (SAGE In vitro Fertilization), the estrogen receptor antagonist, 7α, 17β-[9-([4,4,5,5,5-pentafluoropentyl]sulfinyl)nonyl]estra-1,3,5(10)-triene-3,17-diol; ICI 182,780 (ICI; Tocris Bioscience), 4-hydroxytamoxifen (Sigma-Aldrich), and MPP (Methylpiperidino pyrazole; Cayman Chemical) were added at the indicated concentrations for each experimental group below. The α-MEM medium (Gibco, Thermo Fisher Scientific Inc.) supplemented with 1.5 mM 2-O-α-d glucopyranosyl-1-ascorbic acid (Tokyo Chemical Industry), 10 units/mL penicillin, and 10 μg/mL streptomycin (Sigma-Aldrich) was used as a basal medium (referred to the basal medium hereafter as α-MEM).
ICI 182,780 and 4-hydroxytamoxifen was prepared as follows. ICI 182,780 and 4-hydroxytamoxifen was diluted to 100 mM using DMSO, and cryopreserved stock was prepared. MPP was diluted to 10 mM using DMSO, and cryopreserved stock was prepared. 1 mM solutions of ICI 182, 780 and 4-hydroxytamoxifen were prepared by diluting the 100 mM stocks 100-fold with DMSO just before use and were added to the medium at the indicated final concentrations for each experimental group. MPP was added to the medium at 1 μM as the final concentration just before use.
The gonads for the organ culture were collected with mesonephros or without mesonephros from female mouse fetuses at 12.5 dpc (FIG. 1a). 2.2 ml of the medium was added to each 6-well culture plate used for the organ culture. Transwell®-COL membrane (3.0-μm pore size, 24-mm diameter; Corning) was put on each well of the 6-well culture plate. The gonads were transferred on the membrane and were cultured for 17 days at 37° C. under 5% CO2 and 95% air. Approximately half of the medium in each well was replaced with fresh medium every other day. In the example in which the gonad was cultured with mesonephros, mesonephros was removed from the gonad at day 7 of the organ culture.
The in vitro organ culture of the gonads was performed according to the following conditions described below. The gonads were cultured for total 17 days in each conditions below (FIG. 2):
(i) culture for the complete 17 days period in 10% FBS containing α-MEM (α-MEM+FBS; FBS group);
(ii) culture for the complete 17 days period in 10% SPS containing α-MEM (α-MEM+SPS; SPS group);
(iii) culture for the complete 17 days period in 10% KSR containing α-MEM (α-MEM+KSR; KSR group);
(iv) culture in 10% FBS containing α-MEM for 4 days with a shift to 10% SPS containing α-MEM for 6 days from day 5 and a shift to 10% FBS containing α-MEM until day 17 from day 11 (αMEM+FBS/SPS; FBS/SPS group);
(v) culture in 10% FBS containing α-MEM for 4 days with a shift to 10% FBS containing α-MEM with the addition of 10 nM, 100 nM, 1 μM, 5 μM, or 10 μM (final concentration) ICI for 6 days from day 5 and a shift to 10% FBS containing α-MEM until day […] (αMEM+FBS/10 nM ICI; FBS/10 nM ICI group, αMEM+FBS/100 nM ICI; FBS/100 nM ICI group, αMEM+FBS/1 μM ICI; FBS/1 μM ICI group, αMEM+FBS/5 μM ICI; FBS/5 μM ICI group, or αMEM+FBS/10 μM ICI; FBS/10 μM ICI group);
(vi) culture in 10% FBS containing α-MEM for 4 days with a shift to 10% FBS containing α-MEM with the addition of 1 μM (final concentration) 4-hydroxytamoxifen for 6 days from day 5 and a shift to 10% FBS containing α-MEM until day 17 from day 11 (αMEM+FBS/1 μM Tamoxifen; FBS/1 μM Tamoxifen group);
(vii) culture in 10% FBS containing α-MEM for 4 days with a shift to 10% FBS containing α-MEM with the addition of 1 μM (final concentration) MPP for 6 days from day 5 and a shift to 10% FBS containing α-MEM until day 17 from day 11 (αMEM+FBS/1 μM MPP; FBS/1 μM MPP group).
Vitrification and warming were conducted as follows by reference to Wang, X. et al., “Successful in vitro culture of pre-antral follicles derived from vitrified murine ovarian tissue: oocyte maturation, fertilization, and live births.” Reproduction 141, 183-191 (2011). […]

[2] = tested on: ovaries cultured for 17 days; assay: Histological analysis of ovary obtained by in vitro culture (H&E, laminin immunofluorescence); format: cell-based, mouse
Protocol: The ovaries cultured for 17 days in (i) FBS group or (v) FBS/10 μM ICI group and the ovaries from female mouse at 10 days after birth were processed for hematoxylin-eosin staining and laminin immunofluorescence staining.
Concretely, the ovaries were fixed for 4 hours at room temperature in 1% paraformaldehyde (PFA)/0.1% glutaraldehyde in 0.05 M phosphate buffer. For H&E staining, the ovaries were embedded in paraffin blocks after a routine protocol, and 4-μm-thick serial sections were prepared. After H&E staining, sections were observed under an IX71 microscope (Olympus). For laminin immunofluorescence staining, ovaries were cut into four to eight pieces, and the tissue sections were incubated for 3 days at 4° C. with an anti-laminin rabbit polyclonal antibody (Abcam) at a dilution of 1:100. Then the tissue sections of the ovaries were incubated for 3 days at 4° C. with an Alexa Fluor 488-conjugated goat anti-rabbit IgG at a dilution of 1:500 (Molecular Probes, Thermo Fisher Scientific Inc.). The obtained tissue sections of the ovaries were further processed for 4′,6-diamidino-2-phenylindole (DAPI; Life Technologies) staining. The tissue sections of the ovaries were observed under Zeiss LSM 710 confocal microscope.

## C[C@]12CC[C@@H]3c4ccc(O)cc4C[C@@H](CCCCCCCCC[S+]([O-])CCCC(F)(F)C(F)(F)F)[C@H]3[C@@H]1CC[C@@H]2O (stereo partly drawn) [ICI, 7α, 17β-[9-([4,4,5,5,5-pentafluoropentyl]sulfinyl)nonyl]estra-1,3,5(10)-triene-3,17-diol]
[1]; (v) FBS/ICI group, FIG. 3d (10 μM ICI)
  follicle morphology of the ovary under an optical microscope: abnormalities were significantly improved
[1]; (v) ICI group, 10 nM, 100 nM, 1 μM, 5 μM or 10 μM ICI day 5-11, FIG. 4
  number of the collected secondary follicles: increased depending on the ICI concentration; also recorded: significantly increased compared to FBS group
[1]; FBS/1 μM ICI group (ICI day 5-11), 19 cultured gonads
  No. of collected follicles: 641
[1]; FBS/5 μM ICI group (ICI day 5-11), 6 cultured gonads
  No. of collected follicles: 312
[1]; FBS/10 μM ICI group (ICI day 5-11), 6 cultured gonads
  No. of collected follicles: 505
[1]; Vitrification FBS/1 μM ICI (vitrified-warmed gonads), 4 cultured gonads
  No. of collected follicles: 57
[1]; vitrified and warmed gonads, FBS/1 μM ICI conditions
  follicles obtained from one ovary: about 14
[2]; (v) FBS/10 μM ICI group, day 17
  laminin localization (immunofluorescence): laminin is circularly localized around the follicle
[2]; (v) FBS/ICI group, FIG. 5b
  multioocyte follicle (multiple oocytes in one follicle): very few
